Assay results reported in PubChem BioAssay AID248 (DTP/NCI, 2004).
Values joined by “and” are separate entries in the source; they are usually repeats but may differ in a detail not shown here. Equal values may be shown once. Toxic doses and inconclusive results are not listed. Rule as the data show it: active = T/C of 150% or more; inactive = T/C below 125%. Peptide text beside a SMILES is read from it. * marks the point of attachment. Bn = c1ccc(C*)cc1; For = O=C*

System: L1210 leukemia ip in BDF1 mice, survival T/C
Experiment: NCI In Vivo Anticancer Drug Screen. Data for tumor model L1210 Leukemia (intraperitoneal) in B6D2F1 (BDF1) mice
Details: endpoint: mean survival time, higher = longer survival
How it was run: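 In this screen, tumor-bearing mice given compound are compared to those given vehicle, and their survival values are reported as a treated-to-control quotient.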

[1] = dose: 100.0 mg/kg/injection, schedule: Q04DX002 (ip), vehicle: Klucel (hydroxypropylcellulose) (HPC)
[2] = dose: 200.0 mg/kg/injection, schedule: Q04DX002 (ip), vehicle: Klucel (hydroxypropylcellulose) (HPC)
[3] = dose: 400.0 mg/kg/injection, schedule: Q04DX002 (ip), vehicle: Klucel (hydroxypropylcellulose) (HPC)
[4] = dose: 100.0 mg/kg/injection, schedule: Q01DX009 (ip), vehicle: saline with Tween-80
[5] = dose: 200.0 mg/kg/injection, schedule: Q01DX009 (ip), vehicle: saline with Tween-80
[6] = dose: 100.0 mg/kg/injection, schedule: Q01DX009 (ip), vehicle: Klucel (hydroxypropylcellulose) (HPC)
[7] = dose: 100.0 mg/kg/injection, schedule: Q04DX003 (ip), vehicle: Klucel (hydroxypropylcellulose) (HPC)
[8] = dose: 200.0 mg/kg/injection, schedule: Q01DX009 (ip), vehicle: Klucel (hydroxypropylcellulose) (HPC)
[9] = dose: 200.0 mg/kg/injection, schedule: Q04DX003 (ip), vehicle: Klucel (hydroxypropylcellulose) (HPC)
[10] = dose: 400.0 mg/kg/injection, schedule: Q01DX009 (ip), vehicle: Klucel (hydroxypropylcellulose) (HPC)
[11] = dose: 400.0 mg/kg/injection, schedule: Q04DX003 (ip), vehicle: Klucel (hydroxypropylcellulose) (HPC)
[12] = dose: 100.0 mg/kg/injection, schedule: Q01DX001 (ip), vehicle: Klucel (hydroxypropylcellulose) (HPC)
[13] = dose: 200.0 mg/kg/injection, schedule: Q01DX001 (ip), vehicle: Klucel (hydroxypropylcellulose) (HPC)
[14] = dose: 400.0 mg/kg/injection, schedule: Q01DX001 (ip), vehicle: Klucel (hydroxypropylcellulose) (HPC)
[15] = dose: 100.0 mg/kg/injection, schedule: Q01DX001 (ip), vehicle: saline
[16] = dose: 200.0 mg/kg/injection, schedule: Q01DX001 (ip), vehicle: saline
[17] = dose: 400.0 mg/kg/injection, schedule: Q01DX001 (ip), vehicle: saline
[18] = dose: 12.5 mg/kg/injection, schedule: Q04DX003 (ip), vehicle: saline with Tween-80
[19] = dose: 25.0 mg/kg/injection, schedule: Q04DX003 (ip), vehicle: saline with Tween-80

Measured: T/C

CCCCCCCS(=O)(=O)c1nc2ccccc2[nH]1
inactive: [1] 95 % of control | [2] 101 % of control | [3] 104 % of control

CCOC(=N)CCCl
inactive: [4] 94 % of control | [5] 102 % of control | dose: 400.0 mg/kg/injection, schedule: Q01DX009 (ip), vehicle: saline with Tween-80 96 % of control

CC(C)CC(NC(=O)C(Cc1ccc(OCc2ccccc2)cc1)NC=O)C(=O)O (stereo unspecified) (For-Tyr(Bn)-Leu-OH; configuration not given here)
inactive: [4] 98 % of control | dose: 100.0 mg/kg/injection, schedule: Q04DX003 (ip), vehicle: saline with Tween-80 97 % of control | [5] 98 % of control | dose: 200.0 mg/kg/injection, schedule: Q04DX003 (ip), vehicle: saline with Tween-80 97 % of control | dose: 400.0 mg/kg/injection, schedule: Q04DX003 (ip), vehicle: saline with Tween-80 92 % of control

COc1cc(NC(=O)CC(C)=O)cc2c(C)cc(=O)n(C)c12
inactive: [6] 101 % of control | [7] 106 % of control | [8] 98 % of control | [9] 89 % of control | [10] 91 % of control | [11] 94 % of control

CCOC(=O)CC(C)(C)CC(=O)C1CNC2=C(C1)C(=O)CC(C)(C)C2 (stereo unspecified)
inactive: dose: 100.0 mg/kg/injection, schedule: Q01DX005 (ip), vehicle: Klucel (hydroxypropylcellulose) (HPC) 102 % of control | [1] 89 % of control | dose: 200.0 mg/kg/injection, schedule: Q01DX005 (ip), vehicle: Klucel (hydroxypropylcellulose) (HPC) 118 % of control | [2] 92 % of control | dose: 400.0 mg/kg/injection, schedule: Q01DX005 (ip), vehicle: Klucel (hydroxypropylcellulose) (HPC) 91 % of control | [3] 97 % of control

Cc1cc(NC(=O)Nc2cc(Cl)ccc2C)no1
inactive: dose: 12.5 mg/kg/injection, schedule: Q01DX009 (ip), vehicle: Klucel (hydroxypropylcellulose) (HPC) 95 % of control | dose: 25.0 mg/kg/injection, schedule: Q01DX009 (ip), vehicle: Klucel (hydroxypropylcellulose) (HPC) 106 % of control | dose: 50.0 mg/kg/injection, schedule: Q01DX009 (ip), vehicle: Klucel (hydroxypropylcellulose) (HPC) 98 % of control

CCOC(=O)/C=C(\c1ccccc1)c1ccc([N+](=O)[O-])cc1
inactive: [12] 94 % of control | [6] 105 % of control and 90 % of control | [1] 93 % of control and 98 % of control | [7] 107 % of control | [13] 98 % of control | [8] 103 % of control and 90 % of control | [2] 100 % of control and 106 % of control | [9] 102 % of control | [14] 102 % of control | [10] 106 % of control and 110 % of control | [3] 98 % of control and 100 % of control | [11] 98 % of control

O=C1C(c2ccccc2)=S=C2Sc3ccccc3N12
inactive: [6] 90 % of control

S=C(Nc1ccccc1)NC1CC2C=CC1CC2 (stereo unspecified)
inactive: [15] 90 % of control | [16] 92 % of control | [17] 113 % of control

CC1=C(C)C(=O)c2c(OC(=O)c3ccccc3)ccc(OC(=O)c3ccccc3)c2C1=O
inactive: dose: 12.5 mg/kg/injection, schedule: Q01DX009 (ip), vehicle: saline 100 % of control | dose: 25.0 mg/kg/injection, schedule: Q01DX009 (ip), vehicle: saline 99 % of control | dose: 50.0 mg/kg/injection, schedule: Q01DX009 (ip), vehicle: saline 92 % of control | dose: 50.0 mg/kg/injection, schedule: Q04DX003 (ip), vehicle: saline 95 % of control | dose: 100.0 mg/kg/injection, schedule: Q01DX009 (ip), vehicle: saline 92 % of control | dose: 100.0 mg/kg/injection, schedule: Q04DX003 (ip), vehicle: saline 98 % of control and 91 % of control | dose: 200.0 mg/kg/injection, schedule: Q01DX009 (ip), vehicle: saline 87 % of control | dose: 200.0 mg/kg/injection, schedule: Q04DX003 (ip), vehicle: saline 90 % of control | dose: 400.0 mg/kg/injection, schedule: Q04DX003 (ip), vehicle: saline 92 % of control and 91 % of control

CC(C)P(CP(=S)(c1ccccc1)c1ccccc1)c1ccccc1 (stereo unspecified)
inactive: dose: 100.0 mg/kg/injection, schedule: Q04DX003 (ip), vehicle: carboxymethylcellulose (CMC) 98 % of control | dose: 200.0 mg/kg/injection, schedule: Q04DX003 (ip), vehicle: carboxymethylcellulose (CMC) 100 % of control | dose: 400.0 mg/kg/injection, schedule: Q04DX003 (ip), vehicle: carboxymethylcellulose (CMC) 93 % of control

CN1CN(c2ccccc2)C2(CCN(Cc3nc4ccccc4[nH]3)CC2)C1=O
inactive: dose: 75.0 mg/kg/injection, schedule: Q04DX003 (ip), vehicle: Klucel (hydroxypropylcellulose) (HPC) 100 % of control | dose: 150.0 mg/kg/injection, schedule: Q04DX003 (ip), vehicle: Klucel (hydroxypropylcellulose) (HPC) 107 % of control | dose: 300.0 mg/kg/injection, schedule: Q04DX003 (ip), vehicle: Klucel (hydroxypropylcellulose) (HPC) 105 % of control

ICC1OCOC2C(CI)OCOC12 (stereo unspecified)
inactive: dose: 100.0 mg/kg/injection, schedule: Q01DX001 (ip), vehicle: other 103 % of control | dose: 200.0 mg/kg/injection, schedule: Q01DX001 (ip), vehicle: other 93 % of control | dose: 400.0 mg/kg/injection, schedule: Q01DX001 (ip), vehicle: other 103 % of control

CC1(C)CN(Cc2ccccc2)C(C)(C)CN1
inactive: dose: 0.19 mg/kg/injection, schedule: Q01DX009 (ip), vehicle: saline with Tween-80 93 % of control | dose: 0.39 mg/kg/injection, schedule: Q01DX009 (ip), vehicle: saline with Tween-80 100 % of control | dose: 0.78 mg/kg/injection, schedule: Q01DX009 (ip), vehicle: saline with Tween-80 106 % of control | dose: 1.56 mg/kg/injection, schedule: Q01DX009 (ip), vehicle: saline with Tween-80 101 % of control | [18] 92 % of control | [19] 103 % of control

O=c1c2ccccc2nnn1-c1ccc([N+](=O)[O-])cc1
inactive: [15] 97 % of control | [16] 94 % of control | [17] 95 % of control

CC(=O)OC1CCCCCCCCC1OC(C)=O (stereo unspecified)
inactive: dose: 100.0 mg/kg/injection, schedule: Q01DX001 (ip), vehicle: carboxymethylcellulose (CMC) 103 % of control | dose: 200.0 mg/kg/injection, schedule: Q01DX001 (ip), vehicle: carboxymethylcellulose (CMC) 98 % of control | dose: 400.0 mg/kg/injection, schedule: Q01DX001 (ip), vehicle: carboxymethylcellulose (CMC) 95 % of control

NNC(=O)c1ccc(Cl)c(Cl)c1
inactive: [12] 104 % of control | [13] 117 % of control | [14] 112 % of control

N#CCc1cnc2ccccc2n1
inactive: dose: 6.25 mg/kg/injection, schedule: Q01DX009 (ip), vehicle: saline with Tween-80 96 % of control | dose: 12.5 mg/kg/injection, schedule: Q01DX009 (ip), vehicle: saline with Tween-80 98 % of control | [18] 94 % of control | dose: 25.0 mg/kg/injection, schedule: Q01DX009 (ip), vehicle: saline with Tween-80 101 % of control | [19] 96 % of control

COC(=O)c1cccc2c1C1CCC2c2cccc(C(=O)OC)c21
inactive: dose: 100.0 mg/kg/injection, schedule: Q04DX002 (ip), vehicle: gum acacia 101 % of control | dose: 200.0 mg/kg/injection, schedule: Q04DX002 (ip), vehicle: gum acacia 96 % of control | dose: 400.0 mg/kg/injection, schedule: Q04DX002 (ip), vehicle: gum acacia 99 % of control

C=C(C)C(=Nc1ccc(Cl)c(Cl)c1)N(C)C
inactive: dose: 55.0 mg/kg/injection, schedule: Q01DX Z (ip), vehicle: methylcellulose (MC) 98 % of control | dose: 83.0 mg/kg/injection, schedule: Q01DX Z (ip), vehicle: methylcellulose (MC) 93 % of control | dose: 125.0 mg/kg/injection, schedule: Q01DX Z (ip), vehicle: methylcellulose (MC) 93 % of control
